Laboratory results reported in patent publication US9738634B2, “Heterocyclic amide compound and herbicide” (SYNGENTA PARTICIPATIONS AG, priority 2013, dated 2017).

Legend:
Assay type in all cases: in vivo
bulrush [1] = assay: Test Example 1: weedkilling efficacy, preemergent weed treatment in the submerged state; B: bulrush; conditions: treatment dosage 252 g/ha
How it was run: (§1)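 Pots of alluvial soil were flooded to a 4 cm depth. Mixed weed seeds were sown and 2.5 leaf-stage rice seedlings transplanted. On sowing day, water-diluted emulsion was applied to the water surface (dose in g/ha). After 3 weeks at 25–30 °C, effects were rated.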

corn = assay: Test Example 3: soil treatment, effect on crop; c: corn; conditions: soil treatment, treatment dosage 315 g/ha
Text: (§2) Weedkilling Efficacy Test Through Soil Treatment
(§3) Sterilized diluvial soil was introduced into 21 cm long, 13 cm wide, 7 cm deep plastic boxes, and seeds of crabgrass, green foxtail, barnyard grass, wild oat, black-grass, Italian ryegrass, common wind-grass, Indian mallow, redroot pigweed, fig-leafed goosefoot, chickweed, catchweed, birds-eye speedwell, corn, soybean, rice, wheat, beet and rapeseed were each spot-sown, and covered with about 1.5 cm of soil. Next, emulsions of compounds of the present invention prepared according to compounding example 2 were diluted with water to give the specified dosages, and applied uniformly onto the soil surface with a small sprayer. The plants were grown by placing the plastic boxes in a greenhouse at 25 to 30° C., and 3 weeks after the pesticide treatment the effect on each type of plant was investigated on the basis of the assessment criteria of test example 1.
(§4) A: barnyard grass, B: bulrush, C: oval-leafed pondweed, D: crabgrass, E: green foxtail, F: barnyard grass, G: wild oat, H: black-grass, I: Italian ryegrass, J: common wind-grass, K: Indian mallow, L: redroot pigweed, M: fig-leafed goosefoot, N: chickweed, O: catchweed, p: birds-eye speedwell, a: transplanted rice, b: directly sown rice, c: corn, d: soybean, e: wheat, f: beet, g: rapeseed
(§5) Further, pesticide dosage (g/ha) indicates the concentration regulated such that treatment was with only the stated number of grams (g), when calculated per hectare (ha).

Italian ryegrass = assay: Test Example 3: weedkilling efficacy through soil treatment; I: Italian ryegrass; conditions: soil treatment, treatment dosage 315 g/ha
Text: as §2, §3, §4, §5

redroot pigweed = assay: Test Example 3: weedkilling efficacy through soil treatment; L: redroot pigweed; conditions: soil treatment, treatment dosage 315 g/ha
Text: as §2, §3, §4, §5

birds-eye speedwell = assay: Test Example 3: weedkilling efficacy through soil treatment; p: birds-eye speedwell; conditions: soil treatment, treatment dosage 315 g/ha
Text: as §2, §3, §4, §5

green foxtail = assay: Test Example 3: weedkilling efficacy through soil treatment; E: green foxtail; conditions: soil treatment, treatment dosage 315 g/ha
Text: as §2, §3, §4, §5

crabgrass = assay: Test Example 3: weedkilling efficacy through soil treatment; D: crabgrass; conditions: soil treatment, treatment dosage 315 g/ha
Text: as §2, §3, §4, §5

oval-leafed pondweed [2] = assay: Test Example 2: weedkilling efficacy, growth period weed treatment in the submerged state; C: oval-leafed pondweed; conditions: treatment dosage 252 g/ha
How it was run: (§6)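 Weeds treated at the 1-2 leaf stage by application of diluted emulsion onto floodwater (4 cm depth, alluvial soil) at specified g/ha. Grown in greenhouse at 25 to 30° C; herbicidal effect rated three weeks after treatment.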

wheat = assay: Test Example 3: soil treatment, effect on crop; e: wheat; conditions: soil treatment, treatment dosage 315 g/ha
Text: as §2, §3, §4, §5

barnyard grass [3] = assay: Test Example 2: weedkilling efficacy, growth period weed treatment in the submerged state; A: barnyard grass; conditions: treatment dosage 252 g/ha
How it was run: as §6

black-grass = assay: Test Example 3: weedkilling efficacy through soil treatment; H: black-grass; conditions: soil treatment, treatment dosage 315 g/ha
Text: as §2, §3, §4, §5

transplanted rice = assay: Test Example 1: preemergent weed treatment in the submerged state, effect on crop; a: transplanted rice; conditions: treatment dosage 252 g/ha
How it was run: as §1

bulrush [4] = assay: Test Example 2: weedkilling efficacy, growth period weed treatment in the submerged state; B: bulrush; conditions: treatment dosage 252 g/ha
How it was run: as §6

chickweed = assay: Test Example 3: weedkilling efficacy through soil treatment; N: chickweed; conditions: soil treatment, treatment dosage 315 g/ha
Text: as §2, §3, §4, §5

soybean = assay: Test Example 3: soil treatment, effect on crop; d: soybean; conditions: soil treatment, treatment dosage 315 g/ha
Text: as §2, §3, §4, §5

beet = assay: Test Example 3: soil treatment, effect on crop; f: beet; conditions: soil treatment, treatment dosage 315 g/ha
Text: as §2, §3, §4, §5

Indian mallow = assay: Test Example 3: weedkilling efficacy through soil treatment; K: Indian mallow; conditions: soil treatment, treatment dosage 315 g/ha
Text: as §2, §3, §4, §5

oval-leafed pondweed [5] = assay: Test Example 1: weedkilling efficacy, preemergent weed treatment in the submerged state; C: oval-leafed pondweed; conditions: treatment dosage 252 g/ha
How it was run: as §1

barnyard grass [6] = assay: Test Example 1: weedkilling efficacy, preemergent weed treatment in the submerged state; A: barnyard grass; conditions: treatment dosage 252 g/ha
How it was run: as §1

directly sown rice = assay: Test Example 3: soil treatment, effect on crop; b: directly sown rice; conditions: soil treatment, treatment dosage 315 g/ha
Text: as §2, §3, §4, §5

wild oat = assay: Test Example 3: weedkilling efficacy through soil treatment; G: wild oat; conditions: soil treatment, treatment dosage 315 g/ha
Text: as §2, §3, §4, §5

fig-leafed goosefoot = assay: Test Example 3: weedkilling efficacy through soil treatment; M: fig-leafed goosefoot; conditions: soil treatment, treatment dosage 315 g/ha
Text: as §2, §3, §4, §5

SMILES	B: bulrush, weed kill grade (bulrush [1])	c: corn, effect on crop grade (corn)	I: Italian ryegrass, weedkilling efficacy grade (Italian ryegrass)	L: redroot pigweed, weedkilling efficacy grade (redroot pigweed)	E: green foxtail, weedkilling efficacy grade (green foxtail)	D: crabgrass, weedkilling efficacy grade (crabgrass)	C (oval-leafed pondweed) weedkilling efficacy grade (oval-leafed pondweed [2])	e: wheat, effect on crop grade (wheat)	A (barnyard grass) weedkilling efficacy grade (barnyard grass [3])	H: black-grass, weedkilling efficacy grade (black-grass)	a: transplanted rice, effect on crop grade (transplanted rice)	B (bulrush) weedkilling efficacy grade (bulrush [4])	N: chickweed, weedkilling efficacy grade (chickweed)	d: soybean, effect on crop grade (soybean)	f: beet, effect on crop grade (beet)	K: Indian mallow, weedkilling efficacy grade (Indian mallow)	C: oval-leafed pondweed, weed kill grade (oval-leafed pondweed [5])	b: directly sown rice, effect on crop grade (directly sown rice)	G: wild oat, weedkilling efficacy grade (wild oat)	M: fig-leafed goosefoot, weedkilling efficacy grade (fig-leafed goosefoot)	other results
Cc1csc(NC(=O)C(C)(C)N2COCN(c3ccccc3)C2=O)n1 [A-1-05]	5 (weed kill ratio 90% or more, (practically complete withering))	1 (weed kill ratio 5% or more, less than 20%)	5 (weed kill ratio 90% or more, (practically complete withering))	5 (weed kill ratio 90% or more, (practically complete withering))	5 (weed kill ratio 90% or more, (practically complete withering))	5 (weed kill ratio 90% or more, (practically complete withering))	3 (weed kill ratio 40% or more, less than 70%)	0 (weed kill ratio 5% or less (practically no effect))	3 (weed kill ratio 40% or more, less than 70%)	5 (weed kill ratio 90% or more, (practically complete withering))	0 (weed kill ratio 5% or less (practically no effect))	5 (weed kill ratio 90% or more, (practically complete withering))	4 (weed kill ratio 70% or more, less than 90%)	0 (weed kill ratio 5% or less (practically no effect))	3 (weed kill ratio 40% or more, less than 70%)	4 (weed kill ratio 70% or more, less than 90%)	5 (weed kill ratio 90% or more, (practically complete withering))	5 (weed kill ratio 90% or more, (practically complete withering))	4 (weed kill ratio 70% or more, less than 90%)	3 (weed kill ratio 40% or more, less than 70%)	P: birds-eye speedwell, weedkilling efficacy grade (birds-eye speedwell): 5 (weed kill ratio 90% or more, (practically complete withering)); A: barnyard grass, weed kill grade (barnyard grass [6]): 5 (weed kill ratio 90% or more, (practically complete withering))
CC(C)(C(=O)Nc1cc(Cl)cc(Cl)n1)N1COCN(c2ccccc2)C1=O [A-2-17, N-(4,6-dichloropyridin-2-yl)-2-methyl-2-(4-oxo-5-phenyl-1,3,5-oxadiazinan-3-yl) propionamide]		4 (weed kill ratio 70% or more, less than 90%)	5 (weed kill ratio 90% or more, (practically complete withering))	5 (weed kill ratio 90% or more, (practically complete withering))	5 (weed kill ratio 90% or more, (practically complete withering))	5 (weed kill ratio 90% or more, (practically complete withering))		4 (weed kill ratio 70% or more, less than 90%)		5 (weed kill ratio 90% or more, (practically complete withering))			5 (weed kill ratio 90% or more, (practically complete withering))	5 (weed kill ratio 90% or more, (practically complete withering))	5 (weed kill ratio 90% or more, (practically complete withering))	5 (weed kill ratio 90% or more, (practically complete withering))		5 (weed kill ratio 90% or more, (practically complete withering))	5 (weed kill ratio 90% or more, (practically complete withering))	5 (weed kill ratio 90% or more, (practically complete withering))	P: birds-eye speedwell, weedkilling efficacy grade (birds-eye speedwell): 5 (weed kill ratio 90% or more, (practically complete withering))
CC(C)(C(=O)Nc1cc(C(F)(F)F)cc(Cl)n1)N1COCN(c2ccccc2)C1=O [A-2-28]	5 (weed kill ratio 90% or more, (practically complete withering))	1 (weed kill ratio 5% or more, less than 20%)	5 (weed kill ratio 90% or more, (practically complete withering))	4 (weed kill ratio 70% or more, less than 90%)	5 (weed kill ratio 90% or more, (practically complete withering))	5 (weed kill ratio 90% or more, (practically complete withering))	5 (weed kill ratio 90% or more, (practically complete withering))	1 (weed kill ratio 5% or more, less than 20%)	5 (weed kill ratio 90% or more, (practically complete withering))	5 (weed kill ratio 90% or more, (practically complete withering))	2 (weed kill ratio 20% or more, less than 40%)	5 (weed kill ratio 90% or more, (practically complete withering))	5 (weed kill ratio 90% or more, (practically complete withering))	3 (weed kill ratio 40% or more, less than 70%)	5 (weed kill ratio 90% or more, (practically complete withering))	4 (weed kill ratio 70% or more, less than 90%)	5 (weed kill ratio 90% or more, (practically complete withering))	5 (weed kill ratio 90% or more, (practically complete withering))	5 (weed kill ratio 90% or more, (practically complete withering))	5 (weed kill ratio 90% or more, (practically complete withering))	A: barnyard grass, weed kill grade (barnyard grass [6]): 5 (weed kill ratio 90% or more, (practically complete withering))
Cc1cccc(NC(=O)C(C)(C)N2COCN(c3ccccc3)C2=O)n1 [A-2-38]	5 (weed kill ratio 90% or more, (practically complete withering))	2 (weed kill ratio 20% or more, less than 40%)	5 (weed kill ratio 90% or more, (practically complete withering))	5 (weed kill ratio 90% or more, (practically complete withering))	5 (weed kill ratio 90% or more, (practically complete withering))	5 (weed kill ratio 90% or more, (practically complete withering))	3 (weed kill ratio 40% or more, less than 70%)	0 (weed kill ratio 5% or less (practically no effect))	3 (weed kill ratio 40% or more, less than 70%)	5 (weed kill ratio 90% or more, (practically complete withering))	0 (weed kill ratio 5% or less (practically no effect))	5 (weed kill ratio 90% or more, (practically complete withering))	4 (weed kill ratio 70% or more, less than 90%)	2 (weed kill ratio 20% or more, less than 40%)	4 (weed kill ratio 70% or more, less than 90%)	2 (weed kill ratio 20% or more, less than 40%)	4 (weed kill ratio 70% or more, less than 90%)	5 (weed kill ratio 90% or more, (practically complete withering))	5 (weed kill ratio 90% or more, (practically complete withering))	4 (weed kill ratio 70% or more, less than 90%)	A: barnyard grass, weed kill grade (barnyard grass [6]): 5 (weed kill ratio 90% or more, (practically complete withering))
